This note sets out measurements from patent US20260297081A1, “COMPOUNDS AND METHODS OF TREATING CANCERS” (Cullgen Inc., priority 2023, published 2026).

Where only a bound is given, the exact number is not on record here.

Common to all, as to assay type: cell-based
The target of one test is CDK4 (Homo sapiens, UniProt P11802+Q16531). The experiment in a line: HiBiT detection of HiBiT-tagged CDK4 protein level in MCF7 cells, 16 hours (Table 8). More on the design: expressed in transfected cells; host or cells: MCF7. The following applies: MCF7 cells stably expressing HiBiT tagged target proteins; for activity at 0.01 µM: 10 nM, read-out: % CDK4 Relative Level (10 nM); for activity at 0.1 µM: 100 nM, read-out: % CDK4 Relative Level (100 nM). The procedure: HiBiT detection system quantitatively measures total amounts of HiBiT-tagged proteins using a luminescent based method. MCF7 cells stably expressing HiBiT tagged target proteins were treated with heterobifunctional compounds at indicated concentrations for 16 hours, then lysed with Nano-Glo HiBiT Lytic detection reagents.
A general note: With HiBiT, luminescence reflects the tagged protein that the partner subunit can reach.

In a further test the test system is Calu-1 cells. The experiment in a line: Anti-proliferation (viability) of NSCLC Calu-1 cells, 3 days (Table 7, FIG. 2B). The following applies: Homo sapiens, 72 h; Calu-1 cells, 3 days, 10-point serial dilution; read-out: GI IC50 in Calu-1. The gist of the method:
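Viability is read after treatment with compounds titrated over ten serial dilution points, with exposure lasting three days for the NSCLC line and six days for the breast cancer line.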

A further test relates to MCF7 cells. The experiment in a line: Anti-proliferation (viability) of MCF7 cells (Table 7, FIG. 2B). Particulars: Homo sapiens, MCF7, MCF7 cells, 3-6 days, 10-point serial dilution; read-out: GI IC50 in MCF-7.

Sequence of CDK4 (P11802 whole entry): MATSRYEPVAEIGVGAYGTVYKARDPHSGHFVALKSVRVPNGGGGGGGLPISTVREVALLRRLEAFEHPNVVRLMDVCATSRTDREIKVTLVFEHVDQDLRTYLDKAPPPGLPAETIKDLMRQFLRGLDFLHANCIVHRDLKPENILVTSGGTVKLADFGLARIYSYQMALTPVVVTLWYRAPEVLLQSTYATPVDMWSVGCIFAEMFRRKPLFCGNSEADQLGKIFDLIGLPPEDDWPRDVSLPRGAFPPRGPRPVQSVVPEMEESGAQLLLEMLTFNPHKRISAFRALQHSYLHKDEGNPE
Sequence of CDK4 (P24385 whole entry partner): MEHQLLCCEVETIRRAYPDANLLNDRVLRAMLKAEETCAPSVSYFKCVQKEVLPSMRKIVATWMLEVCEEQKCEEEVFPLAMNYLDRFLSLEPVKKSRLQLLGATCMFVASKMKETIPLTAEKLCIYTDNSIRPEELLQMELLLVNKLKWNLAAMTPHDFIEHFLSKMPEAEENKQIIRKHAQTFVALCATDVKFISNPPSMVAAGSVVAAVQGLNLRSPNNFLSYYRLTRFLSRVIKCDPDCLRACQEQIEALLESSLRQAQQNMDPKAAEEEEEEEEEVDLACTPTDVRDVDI
Sequence of CDK4 (Q16531 2-1140 limits assumed): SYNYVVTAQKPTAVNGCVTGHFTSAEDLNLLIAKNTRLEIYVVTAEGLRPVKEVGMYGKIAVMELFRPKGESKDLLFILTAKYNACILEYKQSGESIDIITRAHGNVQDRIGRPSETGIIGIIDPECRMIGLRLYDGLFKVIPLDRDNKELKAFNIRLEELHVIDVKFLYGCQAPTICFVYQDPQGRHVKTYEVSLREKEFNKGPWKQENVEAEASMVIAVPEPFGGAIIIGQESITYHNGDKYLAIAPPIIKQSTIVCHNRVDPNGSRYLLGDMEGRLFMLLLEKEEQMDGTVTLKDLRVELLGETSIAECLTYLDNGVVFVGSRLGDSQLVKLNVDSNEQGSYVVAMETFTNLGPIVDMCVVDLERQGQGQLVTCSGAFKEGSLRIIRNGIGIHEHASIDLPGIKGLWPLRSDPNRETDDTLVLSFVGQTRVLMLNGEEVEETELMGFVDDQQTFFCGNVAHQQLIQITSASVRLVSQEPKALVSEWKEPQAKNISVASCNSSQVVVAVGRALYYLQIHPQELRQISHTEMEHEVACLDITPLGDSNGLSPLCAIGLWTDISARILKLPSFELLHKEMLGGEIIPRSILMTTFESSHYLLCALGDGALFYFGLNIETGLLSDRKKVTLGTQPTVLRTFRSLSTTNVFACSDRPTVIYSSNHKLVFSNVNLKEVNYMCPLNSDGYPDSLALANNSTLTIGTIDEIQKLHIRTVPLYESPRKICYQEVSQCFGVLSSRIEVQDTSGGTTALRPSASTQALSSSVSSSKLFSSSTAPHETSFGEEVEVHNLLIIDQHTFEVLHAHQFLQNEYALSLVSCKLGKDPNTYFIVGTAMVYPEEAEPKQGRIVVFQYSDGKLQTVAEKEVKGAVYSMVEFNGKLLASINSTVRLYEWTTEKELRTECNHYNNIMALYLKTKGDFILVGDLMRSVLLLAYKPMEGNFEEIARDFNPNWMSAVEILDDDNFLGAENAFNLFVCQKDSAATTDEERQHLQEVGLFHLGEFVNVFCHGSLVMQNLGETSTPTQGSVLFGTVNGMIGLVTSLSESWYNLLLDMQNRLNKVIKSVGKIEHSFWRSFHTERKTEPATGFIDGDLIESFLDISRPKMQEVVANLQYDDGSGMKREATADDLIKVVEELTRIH

As for `CC(=O)c1c(C)c2cnc(Nc3ccc(C(C)N4CCN(CC(=O)N5CCC6(CCC(Nc7nc(NC(C)C)ccc7C(=O)Nc7ccc(N(C)C)nn7)C6)C5)CC4)cn3)nc2n(C2CCCC2)c1=O` (stereo not drawn) [CPD-551, 2-((2-(2-(4-(1-(6-((6-acetyl-8-cyclopentyl-5-methyl-7-oxo-7,8-dihydropyrido[2,3-d]pyrimidin-2-yl)amino)pyridin-3-yl)ethyl)piperazin-1-yl)acetyl)-2-azaspiro[4.4]nonan-7-yl)amino)-N-(6-(dimethylamino)pyridazin-3-yl)-6-(isopropylamino)nicotinamide], at CDK4, the activity at 0.01 µM was above 85% and the activity at 0.1 µM fell in the range of 55 to 85%. Also, the IC50 in the test with Calu-1 cells was at most 10 nM. In addition, the IC50 in the test with MCF7 cells is below 50 nM.

With `CC(=O)c1c(C)c2cnc(Nc3ccc(N4CCN(CCC(=O)NC56CC(Nc7nc(NC(C)C)ccc7C(=O)Nc7ccc(N(C)C)nn7)(C5)C6)CC4)cn3)nc2n(C2CCCC2)c1=O` [CPD-503, 2-((3-(3-(4-(6-((6-acetyl-8-cyclopentyl-5-methyl-7-oxo-7,8-dihydropyrido[2,3-d]pyrimidin-2-yl)amino)pyridin-3-yl)piperazin-1-yl)propanamido)bicyclo[1.1.1]pentan-1-yl)amino)-N-(6-(dimethylamino)pyridazin-3-yl)-6-(isopropylamino)nicotinamide], on CDK4, the activity at 0.01 µM is 55 to 85%. The activity at 0.1 µM on CDK4 fell in the range of 55 to 85%. Moreover, the IC50 with Calu-1 cells was at most 10 nM; in the test with MCF7 cells, below 50 nM.

As to `CC(=O)c1c(C)c2cnc(Nc3ccc(CN4CCN(CC(=O)NC5CC6(C5)CC(Nc5nc(NC(C)C)ccc5C(=O)Nc5cn(C)c(C7CC7)n5)C6)CC4)cn3)nc2n(C2CCCC2)c1=O` (stereo not drawn) [CPD-589, 2-((6-(2-(4-((6-((6-acetyl-8-cyclopentyl-5-methyl-7-oxo-7,8-dihydropyrido[2,3-d]pyrimidin-2-yl)amino)pyridin-3-yl)methyl)piperazin-1-yl)acetamido)spiro[3.3]heptan-2-yl)amino)-N-(2-cyclopropyl-1-methyl-1H-imidazol-4-yl)-6-(isopropylamino)nicotinamide], on CDK4, the activity at 0.01 µM lay in the range of 55 to 85% and the activity at 0.1 µM fell in the range of 55 to 85%. Also, the IC50 in the test with Calu-1 cells was at most 10 nM. The IC50 with MCF7 cells was below 50 nM.

In the case of `CC(=O)c1c(C)c2cnc(Nc3ccc(CN4CCN(C(C)C(=O)N5CCC6(CCC(Nc7nc(NC(C)C)ccc7C(=O)Nc7ccc(N(C)C)nn7)C6)C5)CC4)cn3)nc2n(C2CCCC2)c1=O` (stereo not drawn) [CPD-550, 2-((2-(2-(4-((6-((6-acetyl-8-cyclopentyl-5-methyl-7-oxo-7,8-dihydropyrido[2,3-d]pyrimidin-2-yl)amino)pyridin-3-yl)methyl)piperazin-1-yl)propanoyl)-2-azaspiro[4.4]nonan-7-yl)amino)-N-(6-(dimethylamino)pyridazin-3-yl)-6-(isopropylamino)nicotinamide], the activity at 0.01 µM at CDK4 is above 85%. The activity at 0.1 µM on CDK4 was above 85%. The IC50 in the test with Calu-1 cells is at most 10 nM; in the test on MCF7 cells, below 50 nM.

For the compound `CC(=O)c1c(C)c2cnc(Nc3ccc(N4CCN(C5CCN(C(=O)[C@H]6CC[C@H](Nc7nc(NC(C)C)ccc7C(=O)Nc7cc8n(n7)CCC8)CC6)C5)CC4)cn3)nc2n(C2CCCC2)c1=O` (stereo partly drawn) [CPD-520, 2-((trans-4-(3-(4-(6-((6-acetyl-8-cyclopentyl-5-methyl-7-oxo-7,8-dihydropyrido[2,3-d]pyrimidin-2-yl)amino)pyridin-3-yl)piperazin-1-yl)pyrrolidine-1-carbonyl)cyclohexyl)amino)-N-(5,6-dihydro-4H-pyrrolo[1,2-b]pyrazol-2-yl)-6-(isopropylamino)nicotinamide], on CDK4, the activity at 0.01 µM was above 85% and the activity at 0.1 µM was above 85%. Moreover, the half-maximal inhibitory concentration (IC50) with Calu-1 cells is at most 10 nM. Moreover, in the test on MCF7 cells, the IC50 is below 50 nM.

For the compound `CC(=O)c1c(C)c2cnc(Nc3ccc(N4CCN(C5CCN(C(=O)N6CCC(Nc7nc(NC(C)C)ccc7C(=O)Nc7ccc(N(C)C)nn7)CC6)C5)CC4)cn3)nc2n(C2CCCC2)c1=O` (stereo not drawn) [CPD-469, 2-((1-(3-(4-(6-((6-acetyl-8-cyclopentyl-5-methyl-7-oxo-7,8-dihydropyrido[2,3-d]pyrimidin-2-yl)amino)pyridin-3-yl)piperazin-1-yl)pyrrolidine-1-carbonyl)piperidin-4-yl)amino)-N-(6-(dimethylamino)pyridazin-3-yl)-6-(isopropylamino)nicotinamide], on CDK4, the activity at 0.01 µM was at most 55% and the activity at 0.1 µM is at most 55%. Besides, in the test with Calu-1 cells, the IC50 is at most 10 nM. In addition, the IC50 in the test on MCF7 cells was below 50 nM.

`CC(=O)c1c(C)c2cnc(Nc3ccc(N4CCN(C5CCN(C(=O)C67CC(Nc8nc(NC(C)C)ccc8C(=O)Nc8cc9n(n8)CCC9)(C6)C7)C5)CC4)cn3)nc2n(C2CCCC2)c1=O` (stereo not drawn) [CPD-592, 2-((3-(3-(4-(6-((6-acetyl-8-cyclopentyl-5-methyl-7-oxo-7,8-dihydropyrido[2,3-d]pyrimidin-2-yl)amino)pyridin-3-yl)piperazin-1-yl)pyrrolidine-1-carbonyl)bicyclo[1.1.1]pentan-1-yl)amino)-N-(5,6-dihydro-4H-pyrrolo[1,2-b]pyrazol-2-yl)-6-(isopropylamino)nicotinamide]: on CDK4, the activity at 0.01 µM lay in the range of 55 to 85% and the activity at 0.1 µM fell in the range of 55 to 85%. The IC50 with Calu-1 cells was at most 10 nM. For the same compound, the IC50 with MCF7 cells is below 50 nM.

With `CC(=O)c1c(C)c2cnc(Nc3ccc(CN4CCN(CC(=O)NC5CCC(Nc6nc(NC(C)C)ccc6C(=O)Nc6ccc(N(C)C)nn6)CC5)CC4)cn3)nc2n(C2CCCC2)c1=O` (stereo not drawn) [CPD-473, 2-((4-(2-(4-((6-((6-acetyl-8-cyclopentyl-5-methyl-7-oxo-7,8-dihydropyrido[2,3-d]pyrimidin-2-yl)amino)pyridin-3-yl)methyl)piperazin-1-yl)acetamido)cyclohexyl)amino)-N-(6-(dimethylamino)pyridazin-3-yl)-6-(isopropylamino)nicotinamide], on CDK4, the activity at 0.01 µM was above 85% and the activity at 0.1 µM is above 85%. The IC50 with Calu-1 cells was at most 10 nM. Moreover, the IC50 in the test on MCF7 cells was below 50 nM.

As to `COC1(C(=O)N2CCC(N3CCN(c4ccc(Nc5ncc6c(C)c(C(C)=O)c(=O)n(C7CCCC7)c6n5)nc4)CC3)C2)CCC(Nc2nc(NC(C)C)ccc2C(=O)Nc2ccc(N(C)C)nn2)CC1` (stereo not drawn) [CPD-536, 2-((4-(3-(4-(6-((6-acetyl-8-cyclopentyl-5-methyl-7-oxo-7,8-dihydropyrido[2,3-d]pyrimidin-2-yl)amino)pyridin-3-yl)piperazin-1-yl)pyrrolidine-1-carbonyl)-4-methoxycyclohexyl)amino)-N-(6-(dimethylamino)pyridazin-3-yl)-6-(isopropylamino)nicotinamide], the activity at 0.01 µM on CDK4 was above 85%. Further, the activity at 0.1 µM at CDK4 is 55 to 85%. Also, the IC50 with Calu-1 cells is at most 10 nM; in the test with MCF7 cells, below 50 nM.

On to `[2H]C([2H])([2H])Nc1ccc(C(=O)Nc2ccc(N(C)C)nn2)c(NC2CC3(C2)CN(C(=O)C(C)N2CCN(Cc4ccc(Nc5ncc6c(C)c(C(C)=O)c(=O)n(C7CCCC7)c6n5)nc4)CC2)C3)n1` (stereo not drawn) [CPD-456, 2-((2-(2-(4-((6-((6-acetyl-8-cyclopentyl-5-methyl-7-oxo-7,8-dihydropyrido[2,3-d]pyrimidin-2-yl)amino)pyridin-3-yl)methyl)piperazin-1-yl)propanoyl)-2-azaspiro[3.3]heptan-6-yl)amino)-N-(6-(dimethylamino)pyridazin-3-yl)-6-((methyl-d3)amino)nicotinamide], for which, at CDK4, the activity at 0.01 µM is 55 to 85% and the activity at 0.1 µM was in the range of 55 to 85%. Moreover, the IC50 in the test on Calu-1 cells is at most 10 nM. The IC50 in the test on MCF7 cells is below 50 nM.

With `CC(=O)c1c(C)c2cnc(Nc3ccc(N4CCC5(CCN(CC(=O)N6CC7(CC(Nc8nc(NC(C)C)ccc8C(=O)Nc8cc9n(n8)CCC9)C7)C6)C5)C4)cn3)nc2n(C2CCCC2)c1=O` (stereo not drawn) [CPD-529, 2-((2-(2-(7-(6-((6-acetyl-8-cyclopentyl-5-methyl-7-oxo-7,8-dihydropyrido[2,3-d]pyrimidin-2-yl)amino)pyridin-3-yl)-2,7-diazaspiro[4.4]nonan-2-yl)acetyl)-2-azaspiro[3.3]heptan-6-yl)amino)-N-(5,6-dihydro-4H-pyrrolo[1,2-b]pyrazol-2-yl)-6-(isopropylamino)nicotinamide], on CDK4, the activity at 0.01 µM was above 85% and the activity at 0.1 µM was above 85%. The IC50 in the test on Calu-1 cells is at most 10 nM. For the same compound, the IC50 with MCF7 cells was below 50 nM.

For the compound `CC(=O)c1c(C)c2cnc(Nc3ccc(CN4CCN(CC(=O)N5CCC6(CC(Nc7nc(NC(C)C)ccc7C(=O)Nc7ccc(N(C)C)nn7)C6)C5)CC4)cn3)nc2n(C2CCCC2)c1=O` (stereo not drawn) [CPD-570, 2-((6-(2-(4-((6-((6-acetyl-8-cyclopentyl-5-methyl-7-oxo-7,8-dihydropyrido[2,3-d]pyrimidin-2-yl)amino)pyridin-3-yl)methyl)piperazin-1-yl)acetyl)-6-azaspiro[3.4]octan-2-yl)amino)-N-(6-(dimethylamino)pyridazin-3-yl)-6-(isopropylamino)nicotinamide], at CDK4, the activity at 0.01 µM is above 85% and the activity at 0.1 µM was 55 to 85%. Besides, in the test with Calu-1 cells, the IC50 was at most 10 nM. Further, the IC50 in the test with MCF7 cells was below 50 nM.

As usually defined, the IC50 is the concentration that gives 50% inhibition.
